In ChEMBL document CHEMBL6182898, “Design, synthesis and bioevaluation of novel hydrazide derivatives as enhancers of immunotherapy and DNA-damage response in antitumor therapy” (Eur J Med Chem, 2025) one finds inhibition in vivo, Activity and inhibition data, which are given here for three molecules.

Experiment [1] deals with 4T1. Briefly: Antitumor activity against mouse 4T1 cells implanted in mouse at 20 mg/kg/day relative to control. The class given is functional. The conditions noted are these: read-out: TGI.
For experiment [2], the system named is 4T1. The experiment in a line: Induction of DNA damage in mouse 4T1 cells implanted in mouse assessed as decrease in PARP level at 20 mg/kg/day by immunofluorescence based analysis. The experiment is classed as functional, organism-based.
The test system of experiment [3] is 4T1. Briefly: Induction of DNA damage in mouse 4T1 cells assessed as increase in gamma-H2AX level at 1 uM by immunofluorescence based analysis. The class given is functional, cell-based.
Experiment [4] concerns 4T1. The experiment in a line: Induction of DNA damage in mouse 4T1 cells implanted in mouse assessed as decrease in PARP level at 20 mg/kg/day by Western blot analysis. The experiment is classed as functional, organism-based.
The subject of experiment [5] is 4T1. Briefly: Induction of DNA damage in mouse 4T1 cells implanted in mouse assessed as increase in gamma-H2AX level at 20 mg/kg/day by immunofluorescence based analysis. The class given is functional, organism-based.
Experiment [6] relates to 4T1. Briefly: Induction of DNA damage in mouse 4T1 cells assessed as decrease in PARP1 level at 1 uM by immunofluorescence based analysis. The experiment is classed as functional, cell-based.
In experiment [7] the test system is 4T1. Briefly: Induction of DNA damage in mouse 4T1 cells implanted in mouse assessed as increase in gamma-H2AX level at 20 mg/kg/day by Western blot analysis. The class given is functional, organism-based. (Immunoblotting shows a protein as a band on a membrane.)
Experiment [8] concerns 4T1. The experiment in a line: Induction of DNA damage in mouse 4T1 cells assessed as increase in gamma-H2AX level at 2 uM incubated for 24 hrs by Western blot analysis. The experiment is classed as functional, cell-based.
Experiment [9] relates to 4T1. Briefly: Induction of DNA damage in mouse 4T1 cells assessed as decrease in PARP1 level at 2 uM incubated for 24 hrs by Western blot analysis. The experiment is classed as functional, cell-based.
Experiment [10] deals with B16-F10. Briefly: Antitumor activity against mouse B16-F10 cells implanted in male C57BL/6J mouse at 20 mg/kg, IG treated for 14 days consecutively relative to control. The class given is functional. As to conditions: B16-F10, po, 336 h, time 14 day, read-out: TGI.
The subject of experiment [11] is B16-F10. The experiment in a line: Induction of antitumor immunity in mouse B16-F10 cells implanted in male C57BL/6J mouse assessed as CD3+CD8+ T cell infiltration at 20 mg/kg, IG treated for 14 days consecutively by flow cytometry (reference value: 10 %). The class given is functional. The conditions noted are these: time 14 day. In general terms: In flow cytometry, cells or beads pass a laser one at a time.

Experiment [12] has as its system B16-F10. The experiment in a line: Induction of antitumor immunity in mouse B16-F10 cells implanted in male C57BL/6J mouse assessed as CD3+CD4+ T cell infiltration at 20 mg/kg, IG treated for 14 days consecutively by flow cytometry (reference value: 7.4 %). The class given is functional. The conditions noted are these: time 14 day.
Experiment [13] concerns B16-F10. The experiment in a line: Induction of antitumor immunity in mouse B16-F10 cells implanted in male C57BL/6J mouse assessed as CD3+CD4+ T cell infiltration at 50 mg/kg, IG treated for 14 days consecutively by flow cytometry (reference value: 7.4 %). The class given is functional. As to conditions: time 14 day.
Experiment [14] deals with T1, Histone deacetylase 3 (Mus musculus) (UniProt O88895).
T1 sequence (whole entry): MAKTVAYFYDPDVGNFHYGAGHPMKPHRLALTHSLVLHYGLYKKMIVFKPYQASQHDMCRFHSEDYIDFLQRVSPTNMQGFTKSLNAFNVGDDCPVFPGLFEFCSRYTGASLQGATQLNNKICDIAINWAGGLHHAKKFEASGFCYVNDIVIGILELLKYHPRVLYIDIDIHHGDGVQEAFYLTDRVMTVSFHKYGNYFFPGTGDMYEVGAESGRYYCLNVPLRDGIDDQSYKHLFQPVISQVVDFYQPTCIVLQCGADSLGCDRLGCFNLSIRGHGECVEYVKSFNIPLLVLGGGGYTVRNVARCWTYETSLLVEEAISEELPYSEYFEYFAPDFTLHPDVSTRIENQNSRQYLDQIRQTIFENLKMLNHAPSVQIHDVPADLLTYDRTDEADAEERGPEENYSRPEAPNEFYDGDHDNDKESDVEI
Briefly: In vivo inhibition of HDAC3 in mouse B16-F10 cells implanted in male C57BL/6J mouse assessed as increase in Ac-H3 level at 50 mg/kg, IG treated for 14 days consecutively by immunofluorescence based analysis. The conditions noted are these: time 14.0 day. The class given is functional, organism-based.

The subject of experiment [15] is 4T1. Briefly: Induction of DNA damage in mouse 4T1 cells assessed as increase in gamma-H2AX level at 5 uM by immunofluorescence based analysis. The experiment is classed as functional, cell-based.
The next experiment deals with Mus musculus. The experiment in a line: Effect on Ac-alpha-tubulin in mouse B16-F10 cells implanted in male C57BL/6J mouse at 50 mg/kg, IG treated for 14 days consecutively by Western blot analysis. The class given is functional, organism-based. As to conditions: time 14.0 day.
The subject of experiment [16] is 4T1. Briefly: Induction of DNA damage in mouse 4T1 cells assessed as decrease in PARP1 level at 5 uM by immunofluorescence based analysis. The class given is functional, cell-based.
Experiment [17] addresses T1, Histone deacetylase 3 (Mus musculus). The experiment in a line: In vivo inhibition of HDAC3 in mouse B16-F10 cells implanted in male C57BL/6J mouse assessed as increase in Ac-H3 level at 50 mg/kg, IG treated for 14 days consecutively by Western blot analysis. The experiment is classed as functional, organism-based. The conditions noted are these: time 14.0 day.
For experiment [18], the system named is 4T1. Briefly: Synergistic induction of DNA damage in mouse 4T1 cells assessed as decrease in PARP1 level at 1 uM incubated for 24 hrs in presence of Olaparib by Western blot analysis. The class given is functional, cell-based.
Experiment [19] deals with 4T1. The experiment in a line: Synergistic induction of DNA damage in mouse 4T1 cells assessed as increase in gamma-H2AX level at 1 uM incubated for 24 hrs in presence of Olaparib by Western blot analysis. The experiment is classed as functional, cell-based.
Experiment [20] addresses T1, Histone deacetylase 3 (Mus musculus). Briefly: In vivo inhibition of HDAC3 in mouse B16-F10 cells implanted in male C57BL/6J mouse assessed as decrease in PD-L1 level at 50 mg/kg, IG treated for 14 days consecutively by Western blot analysis. The class given is functional, organism-based. As to conditions: time 14.0 day.
In experiment [21] the test system is B16-F10. The experiment in a line: Induction of antitumor immunity in mouse B16-F10 cells implanted in male C57BL/6J mouse assessed as CD3+CD8+ T cell infiltration at 50 mg/kg, IG treated for 14 days consecutively by flow cytometry (reference value: 10 %). The class given is functional. The conditions noted are these: time 14 day.

SMILES strings stand for the structures. Activity calls are given as the source filed them. No cut-off for these calls is given here.

In the case of `O=C(c1cc(Cc2n[nH]c(=O)c3ccccc23)ccc1F)N1CCN(C(=O)C2CC2)CC1` [OLAPARIB], in the experiment on 4T1 [1], the inhibition in vivo at 20 mg/kg/day amounted to 49%. The outcome in the experiment on 4T1 [2], in the experiment on 4T1 [3], in the experiment with 4T1 [4], in the experiment with 4T1 [5], in the experiment on 4T1 [6] and in the experiment with 4T1 [7] was Active. Moreover, the outcome in the experiment on 4T1 [8] and in the experiment with 4T1 [9] was Active.
Consider `Cc1c(COc2cc(OCc3cccc(C#N)c3)c(CNC(C)(C)C(=O)O)cc2Cl)cccc1-c1ccccc1`, for which the inhibition in vivo at 20 mg/kg with B16-F10 [10] turned out to be 33%. For the same molecule, the Activity turned out to be 31% in the experiment with B16-F10 [11] and 23% with B16-F10 [12].
In the case of `O=C(CCCCCCC(=O)Nc1ccccc1)NO` [VORINOSTAT], the Activity is 18% in the experiment on B16-F10 [13], “No effect” in the experiment on Mus musculus and 17% with B16-F10 [21]. Moreover, the inhibition entry in experiment [14], in experiment [17] and in [20] was “Active” in each case. Further, the result with 4T1 [15], in the experiment with 4T1 [16], with 4T1 [18], in the experiment with 4T1 [19], with 4T1 [8] and in the experiment with 4T1 [9] was Active.
